Test results published in patent US20090023810A1, “METHODS OF TRANSLATION AND/OR INFLAMMATION BLOCKADE” (priority 2007, published 2009).

Legend:
eIF4GI-eIF4A interaction = biological target: T1, eIF4GI-eIF4A interaction (Homo sapiens, UniProt P60842); assay: eIF4GI-eIF4A co-immunoprecipitation from 293T cell lysates; type: biochemical; conditions: 293T cell extract, 50 μM, 30° C., 1 hour, FIG. 7A
T1 construct: expressed in transfected cells; host or cells: 293T
Protocol: 293T cells transfected with DNAs were lysed using the NP-40 lysis buffer. The lysates were clarified by centrifugation at 14,000 g for 15 minutes. Anti-FLAG monoclonal antibody (4 μg) was incubated with 20 μl of Protein G-agarose (GE Healthcare) for 1 hour in 1 ml NP-40 lysis buffer at 4° C. Lysates were pre-cleared with 10 μl of protein G-agarose at 4° C. for 30 minutes. After pre-clearing, cell lysates were treated with 50 μM of EtOH, PGE2, or 15d-PGJ2 at 30° C. for 1 hour, followed by centrifugation. Then protein G agarose-conjugated antibodies were incubated with the pre-cleared lysates at 4° C. for 1 hour. Precipitates were washed three times with lysis buffer and analyzed by SDS-PAGE.
The mechanism by which 15d-PGJ2 inhibits translation was investigated by monitoring the effects of 15d-PGJ2 on translational initiation complex formation as shown FIG. 7A. eIF4G is a scaffold protein that recruits eIF4E, eIF4A, eIF3, and PABP into the translational initiation complex. The effect of 15d-PGJ2 on the eIF4GI-eIF4A interaction was monitored by a co-immunoprecipitation assay. 293T cells were co-transfected with HA-eIF4B and FLAG-eIF4A1 (provided by Dr. Yongjun Dang and Dr. Jian Liu, Johns Hopkins). Cells were lysed then treated with 50 μM of PGE2 or 15d-PGJ2 at 30° C. for 1 hour. Immunoprecipitation was performed with an anti-FLAG antibody.

HeLa cells [1] = assay: In vivo [35S]-methionine labeling of newly synthesized proteins in HeLa cells; type: cell-based; conditions: FIG. 4A (30 minutes, concentrations) and FIG. 4B (90 μM, times)
Protocol: HeLa cells were treated with various agents and for various times, as indicated in […] and the brief description thereof. HeLa Cells on 60-mm culture dishes were then washed twice with phosphate-buffered saline (PBS) and incubated in methionine-free Dulbecco's Modified eagle's medium (DMEM) (BMS) medium for 1 hour. Cells were incubated for 30 minutes after supplementation with [^35S]-methionine ([^35S]-Met) ([…]; NEN Life Science Products), washed twice with ice-cold PBS, harvested, and then lysed with the NP-40 lysis buffer. The cell lysates were centrifuged and the protein concentrations in the cell lysates were measured using the Bradford assay method. To quantify newly synthesized proteins, cell lysates labeled with [^35S]-Met were precipitated with 10% trichloroacetic acid (TCA) (w/v), and the precipitated proteins were then dissolved in water and analyzed by a liquid scintillation assay (Packard).
As SG formation is accompanied by translational blockade, the effects of 15d-PGJ2 on protein synthesis were investigated. In FIG. 4A, HeLa cells grown on 60-mm dishes up to about 70-80% confluence were mock-treated (1) or treated with PGA1 (2, 3, and 4), 15d-PGJ2 (5 and 6 and 7), or PGE2 (8, 9, and 10) at the indicated concentrations in FIG. 4A for 30 minutes. Then in vivo labeling of newly synthesized proteins was performed as described above. 4200 CPM was obtained from the TCA-precipitated control sample (lane 1), and phosphorylated eIF2α levels were monitored by Western-blot analyses (bottom panel). In FIG. 4B, cells were mock-treated (1), treated with SA (400 μM) (2 and 3), with PGA1 (90 μM) (4-6), with 15d-PGJ2 (90 μM) (7-9), and with PGE2 (90 μM) (10-12) as indicated times. Newly synthesized proteins were measured as panel (A). 4500 CPM was obtained from the TCA-precipitated control sample (lane 1). Phosphorylated eIF2α levels were monitored by Western-blot analyses (bottom panel) and the obtained results are shown in FIG. 4B.

HeLa cells [2] = assay: Ribosome (polysome) profiling with sucrose gradient in HeLa cells; type: cell-based; conditions: SA 400 μM 30 minutes; 15d-PGJ2 or PGE2 50 μM 1 hour, FIG. 4C
Protocol: Experiments were performed as described elsewhere (Kedersha et al., 2000, which is hereby incorporated by reference for all purposes as if fully set forth herein) using a 0.5-1.5 M sucrose gradient.
It is well known that inhibition of translation and SG formation alters the polysome profile. HeLa cells were mock-treated or treated with SA (400 μM) for 30 minutes, 15d-PGJ2 (50 μM) for 1 hour, or PGE2 (50 μM) for 1 hour. A sucrose gradient experiment was performed as described above, and the obtained results are shown in FIG. 4C, wherein the lines show observance at 254 nm.

eIF2α = assay: Phosphorylated eIF2α levels in HeLa cell lysates (in vitro translation mixtures), Western blot; type: biochemical; conditions: FIG. 5B lanes 2-8
Protocol: In FIG. 5B, HeLa lysates that were pretreated with vehicle (1) or with indicated chemicals (2-9) for 30 minutes at indicated concentrations, a capped Renilla luciferase mRNA (40 nM) was added to the translation mixtures, and then incubated at 30° C. for 1 hour (grey columns). White columns show the effects of the same set of chemicals added together with the reporter mRNA during 1 hour in vitro translation. Relative luciferase activities (mean values) are depicted by columns. Phosphorylated eIF2α levels were monitored by Western-blot analyses (bottom panel). […] The molecular basis of this phenomenon remains to be determined.
This would be the reason why translation is not inhibited by SA in the HeLa cell lysates (FIG. 5B, lane 8) unlike in the in vivo system where eIF2α is phosphorylated by SA ([…]).

HeLa cells [3] = assay: Stress granule (SG) formation in HeLa cells, immunocytochemistry; type: cell-based; conditions: HeLa
Protocol: The immunocytochemical analyses of proteins were performed as described elsewhere (Kim et al., 2005, which is hereby incorporated by reference for all purposes as if fully set forth herein).
HeLa cells that were mock-treated (Mock) or treated with PGA1, 15d-PGJ2, PGE2, SA, arachidonic acid (AA), ciglitazone (Ci), troglitazone (Tro), and rosiglitazone (Rosi) (at indicated concentrations) for 30 minutes.
HeLa cells were treated with lovastatin (100 μM), lipoxin A4 (LXA4, 10 μM), lipoxin B4 (LXB4, 10 μM), epi-lipoxin A4 (epi-LxA4, 10 μM), TGF-β (100 ng/ml), interleukin-10 (IL-10, 100 ng/ml) for 1 hour.
Emetine freezes ribosomes in the polysomal state and inhibits SG formation (Anderson and Kedersha, 2006). HeLa cells that were pretreated for 1 hour with 10 μg/ml of emetine and then treated with 15d-PGJ2 (50 μM) for 1 hour, and subjected to immunocytochemical analyses.
The amounts of 15d-PGJ2 required for SG formation were measured.

[4] = 30 minutes, TIA-1 antibody, FIG. 1A

T1 sequence (P60842 whole entry): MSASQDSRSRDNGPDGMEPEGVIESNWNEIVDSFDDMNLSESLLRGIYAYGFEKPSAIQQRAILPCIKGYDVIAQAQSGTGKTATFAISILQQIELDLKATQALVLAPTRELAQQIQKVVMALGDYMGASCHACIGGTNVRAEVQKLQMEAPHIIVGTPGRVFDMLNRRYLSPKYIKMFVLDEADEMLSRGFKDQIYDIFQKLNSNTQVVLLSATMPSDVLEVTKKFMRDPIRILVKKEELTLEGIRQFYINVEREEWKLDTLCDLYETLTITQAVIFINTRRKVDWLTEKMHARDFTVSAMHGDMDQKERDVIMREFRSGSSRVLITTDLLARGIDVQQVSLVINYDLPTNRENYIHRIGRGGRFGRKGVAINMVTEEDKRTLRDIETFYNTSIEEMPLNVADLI
T1 sequence (P23588 whole entry partner): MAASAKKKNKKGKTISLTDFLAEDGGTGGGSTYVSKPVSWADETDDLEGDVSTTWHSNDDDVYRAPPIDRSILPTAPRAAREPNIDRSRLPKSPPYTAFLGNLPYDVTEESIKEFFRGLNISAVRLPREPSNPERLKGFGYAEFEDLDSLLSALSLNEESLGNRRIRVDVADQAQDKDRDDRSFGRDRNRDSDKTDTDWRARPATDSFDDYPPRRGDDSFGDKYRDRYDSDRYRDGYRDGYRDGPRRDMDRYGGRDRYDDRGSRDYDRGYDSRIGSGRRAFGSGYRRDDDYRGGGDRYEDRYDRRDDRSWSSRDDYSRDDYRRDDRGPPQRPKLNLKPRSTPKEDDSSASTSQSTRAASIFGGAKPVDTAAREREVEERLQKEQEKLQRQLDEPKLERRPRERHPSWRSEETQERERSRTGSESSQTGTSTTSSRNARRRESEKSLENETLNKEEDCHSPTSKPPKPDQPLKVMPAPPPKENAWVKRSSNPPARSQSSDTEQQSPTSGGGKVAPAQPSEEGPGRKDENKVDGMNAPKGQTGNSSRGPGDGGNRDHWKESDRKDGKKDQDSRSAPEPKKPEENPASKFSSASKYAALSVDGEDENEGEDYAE

Q: With `CCCCC/C=C/C=C1/C(=O)C=C[C@@H]1C/C=C\CCCC(=O)O` [15d-PGJ2, 15-deoxy-delta 12,14-prostaglandin J2] as the compound, how does the “Co-precipitation of eIF4GI with eIF4A1” value (eIF4GI-eIF4A interaction) read?
A: eIF4GI was not co-precipitated with eIF4A1

Q: And the “Total protein synthesis (35S-methionine labeling)” value (HeLa cells [1])?
A: inhibited by 15d-PGJ2 in a concentration-dependent manner

Q: What about the “Polysome profile / ribosomal shift” value (HeLa cells [2]) of the same compound?
A: Ribosomal shift to the subunit state was also observed

Q: What about the eIF2α phosphorylation (eIF2α) of the same compound?
A: No increase of eIF2α phosphorylation

Q: And the SG formation (HeLa cells [3]; 10 μM, 12-24 hours, FIG. 1D)?
A: SGs were formed

Q: And the SG formation (HeLa cells [3]; [4])?
A: induced SG formation

Q: And the “SG inducer strength compared” value (HeLa cells [3]; FIG. 1A panel b vs c)?
A: stronger SG inducer than PGA1

Q: With `CCCCC[C@H](O)/C=C/[C@H]1[C@H](O)CC(=O)[C@@H]1C/C=C\CCCC(=O)O` [PGE2, prostaglandin E2] as the compound, how does the “Co-precipitation of eIF4GI with eIF4A1” value (eIF4GI-eIF4A interaction) read?
A: eIF4GI was co-precipitated with eIF4A1

Q: What about the “Total protein synthesis (35S-methionine labeling)” value (HeLa cells [1]) of the same compound?
A: did not block translation

Q: What about the “Polysome profile / ribosomal shift” value (HeLa cells [2]) of the same compound?
A: did not induce a ribosomal shift

Q: And the eIF2α phosphorylation (eIF2α)?
A: No increase of eIF2α phosphorylation

Q: And the SG formation (HeLa cells [3]; [4])?
A: did not induce SG formation
